Source: patent US9138434B2, “Octahydrothienoquinoline derivative, pharmaceutical composition comprising derivative, and use of these” (KISSEI PHARMACEUTICAL CO., LTD., priority 2011, dated 2015)
Read-outs that look alike come from different tables or passages of the source.

Assays:
[1] = molecular target: T1, human dopamine D2 receptor (Homo sapiens, UniProt P14416); assay: Stimulating activities on human dopamine D2 receptor, [35S]GTPγS binding to hD2R#7 cell membrane homogenates; format: biochemical
T1 construct: accorded to it of human dopamine D2 receptor (NM1-000795) registered on NCBI completely; expressed in transfected cells; membrane homogenates
T1 sequence (P14416 whole entry): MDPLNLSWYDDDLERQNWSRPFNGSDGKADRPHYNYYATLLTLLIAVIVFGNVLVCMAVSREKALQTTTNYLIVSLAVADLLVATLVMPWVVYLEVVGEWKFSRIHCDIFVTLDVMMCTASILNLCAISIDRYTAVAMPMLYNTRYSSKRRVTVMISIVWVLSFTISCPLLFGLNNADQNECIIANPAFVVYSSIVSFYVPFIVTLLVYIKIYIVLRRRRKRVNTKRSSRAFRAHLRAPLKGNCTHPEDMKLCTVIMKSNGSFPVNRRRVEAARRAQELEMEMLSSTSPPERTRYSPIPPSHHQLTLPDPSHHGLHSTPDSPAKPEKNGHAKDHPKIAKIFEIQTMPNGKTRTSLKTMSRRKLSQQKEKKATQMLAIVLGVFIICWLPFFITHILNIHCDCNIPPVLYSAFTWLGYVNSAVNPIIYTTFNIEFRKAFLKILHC
Procedure: Identification Test of Stimulating Activities on Human Dopamine D2 Receptor
4) Preparation of Membrane Homogenates from hD2R#7 Cells
(2) Preparation of Membrane Homogenates from hD2R#7 Cells
The cells, which were grown to confluence in 150 mm dishes (IWAKI), were harvested with isotonic buffer (50 mM Tris (Sigma), 2 mM ethylenediamine-tetraacetic acid (Invitrogen), and 125 mM sodium chloride (Wako Pure Chemicals), pH 7.4) and centrifuged at 1880×g and 4° C. for 10 minutes, and the cell pellets were then suspended in isotonic buffer. After being subjected to one cycle of freezing and thawing, the cells were centrifuged at 1880×g and 4° C. for 10 minutes, and the cell pellets were suspended in isotonic buffer. The cells were centrifuged at 1880×g and 4° C. for 10 minutes, and the cell pellets were suspended in isotonic buffer and homogenate buffer (10 mM sodium bicarbonate (Nacalai) and 5 mM ethylenediamine-tetraacetic acid, pH 7.5). The volume ratio of isotonic-to-homogenate buffer was 2. The cells were sonicated and centrifuged at 1880×g and 4° C. for 10 minutes, and the supernatants were ultracentrifuged at 80000×g and 4° C. for 30 minutes. The final cell pellets were suspended in homogenate buffer containing protease inhibitor cocktail (Nacalai) and stored at −80° C. until use. The protein concentration was determined using BCA Protein Assay Kit (Pierce) in accordance with the manufacturer's instructions.
5) Determination of Stimulating Activities of Human Dopamine D2 Receptor
The stimulating activities of human dopamine D2 receptor was determined by measuring the binding potential of [^35S]-guanosine 5′-[gamma-thio]triphosphate ([^35S]GTPγS, PerkinElmer) according to the method described by Newman-Tancredi A. et al. (Naunyn-Schmiedeberg's Arch Pharmacol, 1999, vol. 359, pp. 447-453) with a minor modification. Test compounds and dopamine hydrochloride (Fluka) as positive control were dissolved in dimethyl sulfoxide (CARLBIOCHEM), resulting in 30 mM. The both compounds were diluted with assay buffer (50 mM Tris, 100 mM sodium chloride, 5 mM magnesium chloride (Nacalai), 1 mM ethylenediamine-tetraacetic acid, 1 mM dithiothreitol (Wako Pure Chemicals), 10 μM guanosine diphosphate (Wako Pure Chemicals) and 0.5% bovine serum albumin (Sigma), pH 7.4) to a final concentration of 100 pM (only test compounds), 1 nM, 10 nM, 100 nM, 1 μM, 10 μM and 100 μM (only dopamine hydrochloride). The above membrane homogenates and [^35S]GTPγS were diluted with assay buffer to a final concentration of 0.06 mg/mL and 0.6 nM, respectively. The serial diluted compounds (50 μL), the diluted membrane homogenates (50 μL) and the diluted [^35S]GTPγS (50 μL) were mixed on multi-screen 96-well plate (Millipore) and shaken lightly at room temperature for 60 minutes. The reaction was terminated by vacuum filtration with three times washes of ice-cold wash buffer (50 mM Tris, 100 mM sodium chloride, 5 mM magnesium chloride, and 1 mM ethylenediamine-tetraacetic acid, pH 7.4). After drying the bottoms of the plate at 60° C., MicroScinti-40 (PerkinElmer) (30 μL) was added in the plate. The tops of the plate were sealed by TopSeal-A (PerkinElmer), and the radioactivity was determined in a TopCount NXT (registered mark) (PerkinElmer) after shaking lightly for 5-10 minutes. The data was analyzed by nonlinear regression and sigmoidal dose-response curve fitting using GraphPad PRISM 4.0 (GraphPad Software), and values of EC50 (concentration of the compound producing half the maximal effect of the compound) were calculated. The data was presented as mean value (n=2).

[2] = molecular target: T2, human serotonin 5-HT2B receptor (Homo sapiens, UniProt P41595); assay: Stimulating activities on human serotonin 5-HT2B receptor, intracellular calcium in forced expression HEK293 cells; format: cell-based
T2 construct: expressed in transfected cells; host or cells: HEK293, transient transfection (Lipofectamine 2000)
T2 sequence (P41595 whole entry): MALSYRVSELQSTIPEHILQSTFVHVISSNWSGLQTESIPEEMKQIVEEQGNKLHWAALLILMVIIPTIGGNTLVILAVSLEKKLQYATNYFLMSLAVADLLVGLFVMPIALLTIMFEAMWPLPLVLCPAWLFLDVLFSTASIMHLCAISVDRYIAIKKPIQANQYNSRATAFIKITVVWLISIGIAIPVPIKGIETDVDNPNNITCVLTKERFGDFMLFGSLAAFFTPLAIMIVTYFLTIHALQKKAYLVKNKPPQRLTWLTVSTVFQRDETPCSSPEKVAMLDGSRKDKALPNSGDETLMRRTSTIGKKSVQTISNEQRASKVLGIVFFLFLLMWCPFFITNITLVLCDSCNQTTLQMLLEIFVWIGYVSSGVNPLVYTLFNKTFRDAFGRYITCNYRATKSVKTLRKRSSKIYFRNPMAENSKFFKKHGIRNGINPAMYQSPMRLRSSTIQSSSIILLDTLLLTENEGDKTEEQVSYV
Procedure: Identification Test of Stimulating Activities on Human Serotonin 5-HT2B Receptor
The PCR was performed using forward primer depicted as sequence ID No. 4, reverse primer depicted as sequence ID No. 5 and KOD-Plus-Ver.2 (TOYOBO) as template of human brain hippocampus cDNA (Clontech). The PCR product was inserted into a plasmid (pcDNA3.1/V5-His-Topo (registered mark)). The PCR product-inserted plasmid was transformed in E. coli (One Shot TOP10 Chemically Competent). That E. coli was incubated in LB agar medium contained 50 μg/mL ampicillin for a day. A selected colony was incubated in LB medium contained 50 μg/mL ampicillin and PCR product-inserted plasmid was purified with QIAprep Spin Miniprep Kit (QIAGEN).
Mostly confluent HEK293 cells were washed with PBS, followed by exfoliation with 0.05% trypsin-EDTA and the cells were suspended in D-MEM liquid medium (phenol red-free, low glucose, pyruvic acid were contained) containing fetal bovine serum (final concentration: 10%) and GlutaMax (registered mark)I (final concentration: 2 mM). The suspension was scattered at 5×10^4 cells/100 L/well on poly-D-lysine-coated 96-well microplate (BD BioCoat (registered mark)). The scattered cells were cultured in 5% CO2 incubator at 37° C. Human serotonin 5-HT2B receptor expression plasmid was transfected in that cells according to the procedure seeing below.
Human serotonin 5-HT2B receptor expression plasmid and Lipofectamine (registered mark) 2000 (Invitrogen) were diluted to 0.008 g/L and 0.016 g/L each other with OPTI-MEM (registered mark)I Reduced-Serum Medium and incubated at room temperature. After incubation, the human serotonin 5-HT2B receptor exoression plasmid-diluted liquid and Lipofectamine (registered mark) 2000-diluted liquid were mixed at an equal volume and incubated at room temperature to form a complex. The complex was dispensed at 50 μL/well on the cells prepared above. The cells were incubated in 5% CO2 incubator at 37° C. for 2 days. After incubation, the cells were used as human serotonin 5-HT2B receptor forced expression cells for measurement of intracellular calcium concentration.
3) Determination of Stimulating Activities of Human Serotonin 5-HT2B Receptor
The stimulating activities of human serotonin 5-HT2B receptor was determined by measuring of intracellular calcium concentration. The 30 mM dimethyl sulfoxide (DMSO) solution contained test compounds or serotonin hydrochloride (Sigma) as positive control, was diluted with assay buffer ((HBSS), 20 mM HEPES, 1.3 mM calcium chloride, 0.5 mM magnesium chloride and 0.4 mM magnesium sulfate were contained, pH7.4) to appropriate concentration.
The forced expression cells were washed with assay buffer, and 100 μL/well of fluorescent calcium indicator (Fluo-4 NW Calcium Assay Kit) was added and incubated in 5% CO2 incubator at 37° C. After incubation, 50 μL/well of each test compound was added, and the concentration of intracellular calcium was measured as fluorescent signal with FlexStation (registered mark) II (Molecular Devices). The data was analyzed by nonlinear regression and sigmoidal dose-response curve fitting using GraphPad PRISM 4.0, and values of EC50 (concentration of the compound producing half the maximal effect of the compound) were calculated. The data was presented as mean value (n=2).

[3] = test system: unilateral 6-OHDA-lesioned hemi-Parkinsonian rats; assay: Contralateral rotational behavior in unilateral 6-hydroxydopamine-lesioned hemi-parkinsonian rats; format: in vivo, rat (male Sprague-Dawley); conditions: 10 mg/kg oral, fasted rats, observed up to 24 hours, mean
Procedure: 6-OHDA was dissolved at 2 mg/mL in a physiolosical saline solution containing 0.2% L-ascorbic acid. Desipramine was dissolved at 10 mg/mL in a physiolosical saline solution in a hot-water bath. Apomorphine was dissolved at 0.1 mg/mL in a physiolosical saline solution. […] Test compounds were dissolved in a solution containing 2% DMA, 100 or 200 mol % hydrochloric acid, and 98% of a 0.5% methyl cellulose solution. […] (Eur J Pharmacol, 2000, vol. 408, P. 249-255) with a minor modification. Male Sprague-Dawley rats (6-weeks-old, Charles River Laboratories Japan Inc.) were anaesthetized with intraperitoneal somnopentyl (45 mg/kg) injection and placed in a stereotaxic frame (Narishige). In order to prevent 6-OHDA-induced damage of noradrenergic neurons, desipramine (25 mg/kg) was intraperitoneally injected 30 minutes before the 6-OHDA injection. After the bregma identification via a middle calvarial incision, the skull was drilled using a dental drill at the site of 6-OHDA injection. The lesion was made by injecting 6-OHDA (8 μg in 4 μL at a speed of 1 μL/minute) unilaterally into the left medial forebrain bundle by using a injection cannula (30 gauge needle) connected to a microsyringe (Hamilton) (the lesion coordinates; A/P −2.5 mm, L/M −1.8 mm, and V/D −8.0 mm, from the bregma point and surface of the skull). The cannula was carefully removed from the animal after keeping placed on the lesion site for 5 minutes. The skull was filled its hole with dental cement, disinfected, and the scalp incision was surgically sutured. Animals recovered from anesthesia were housed as usual until the day of the experiment. 3) Determining of Contralateral Rotational Behavior Three weeks after the lesion, rats were tested on the basis of their contralateral rotational behavior (single rotation was defined as a 360° turn) in response to 0.1 mg/kg apomorphine given subcutaneously. For behavioral observation, rats were placed in plastic cylinders of a diameter of 30 cm, and its contralateral rotational behaviors were videotaped and quantified by rat-rotation auto counting system R-RACS (Kissei Wellcom). On the experimental day, animals were fasted overnight, and test compounds were orally administrated at doses of 10 mg/kg. […] Total number of rotations and the duration of the response in experimental period were presented as mean value.

[4] = [35S]GTPγS binding, membrane homogenates of HEK293 cells stably expressing human D2 receptor, mean, n=2, read-out: EC50
[5] = intracellular calcium (Fluo-4), HEK293 cells transiently expressing human 5-HT2B receptor, mean, n=2, read-out: EC50

| EC50 [1, 4] [nM] | EC50 [2, 5] [nM] | SMILES | EC50 [1] [nM] | EC50 [2] [nM] | Total number or rotations ([3]; contralateral rotations) | Duration ([3]; duration of contralateral rotation response) [min] |
| --- | --- | --- | --- | --- | --- | --- |
|  |  | CCN(CC)CCNC(=O)N(CC)C(=O)[C@@H]1C[C@@H]2Cc3c(sc(N)c3C#N)C[C@H]2N(C)C1 [1-105, 1-{[(4aR,6R,8aR)-2-amino-3-cyano-8-methyl-4H,4aH,5H,6H,7H,8H,8aH,9H-thieno[3,2-g]quinolin-6-yl]carbonyl}-3-[2-(diethylamino)ethyl]-1-ethylurea] | 5 | > 10000 |  |  |
| 4 | > 10000 | CCN(C(=O)NC(C)(C)CN(C)C)C(=O)[C@@H]1C[C@@H]2Cc3c(sc(N)c3C#N)C[C@H]2N(C)C1 [1-106, 1-{[(4aR,6R,8aR)-2-amino-3-cyano-8-methyl-4H,4aH,5H,6H,7H,8H,8aH,9H-thieno[3,2-g]quinolin-6-yl]carbonyl}-3-[1-(dimethylamino)-2-methylpropan-2-yl]-1-ethylurea] |  |  |  |  |
|  | > 10000 | CCN(C(=O)NCC(CC)(CC)N(C)C)C(=O)[C@@H]1C[C@@H]2Cc3c(sc(N)c3C#N)C[C@H]2N(C)C1 [1-107, 1-{[(4aR,6R,8aR)-2-amino-3-cyano-8-methyl-4H,4aH,5H,6H,7H,8H,8aH,9H-thieno[3,2-g]quinolin-6-yl]carbonyl}-3-[2-(dimethylamino)-2-ethylbutyl]-1-ethylurea] |  |  | 4033.3 | 1068.3 |
| 3 | > 10000 | CN(C)CCNC(=O)N(CC1CC1)C(=O)[C@@H]1C[C@@H]2Cc3c(sc(N)c3C#N)C[C@H]2N(C)C1 [1-109, 1-{[(4aR,6R,8aR)-2-amino-3-cyano-8-methyl-4H,4aH,5H,6H,7H,8H,8aH,9H-thieno[3,2-g]quinolin-6-yl]carbonyl}-1-(cyclopropylmethyl)-3-[2-(dimethylamino)ethyl]urea] |  |  |  |  |
